Measurements as given in US7276339B2 (H. Lundbeck A/S, priority 1998, dated 2007).
Like-named read-outs stand apart in the source and are kept apart here. Non-standard residues stand in square brackets, D forms with d. Residues, ends and D or L forms follow the SMILES beside them. No end group written: not given here. *: point of attachment. NMeF = CN[C@@H](Cc1ccccc1)C(=O)O; X1 = O=C(Cc1ccc(O)cc1)*

Tests used:
NPFF1 (SNORF2) = target: T1, NPFF1 (SNORF2) (Rattus norvegicus, UniProt Q9EP86); test: Voltage-clamp electrophysiology, Xenopus oocytes injected with SNORF2 (NPFF1) and chimeric Gαq/z RNA; assay type: cell-based; details: for activation of oocytes injected with SNORF2 synthetic RNA: concentration not given; for inward current response: 1 μM, oocytes with SNORF2 + Gαq/z, holding potential −80 mV
T1 construct: linearized plasmids or PCR products containing the complete coding region of the genes; expressed in transfected cells; host or cells: Xenopus laevis oocytes injected with synthetic RNA (T7 transcripts)
T1 sequence (Q9EP86 whole entry): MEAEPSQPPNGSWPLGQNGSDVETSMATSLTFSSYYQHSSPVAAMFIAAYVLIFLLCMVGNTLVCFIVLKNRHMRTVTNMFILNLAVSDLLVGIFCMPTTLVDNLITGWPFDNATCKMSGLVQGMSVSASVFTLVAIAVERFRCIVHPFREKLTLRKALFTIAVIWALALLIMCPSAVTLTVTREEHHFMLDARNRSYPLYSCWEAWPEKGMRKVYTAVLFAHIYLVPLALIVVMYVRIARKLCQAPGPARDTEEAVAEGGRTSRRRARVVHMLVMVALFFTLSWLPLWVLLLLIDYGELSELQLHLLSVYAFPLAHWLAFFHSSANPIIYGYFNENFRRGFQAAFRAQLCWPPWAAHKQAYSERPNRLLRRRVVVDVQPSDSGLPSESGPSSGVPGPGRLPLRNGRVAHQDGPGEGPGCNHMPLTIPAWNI
Procedure: Oocytes were harvested from Xenopus laevis and injected with mRNA transcripts as previously described (Quick and Lester, 1994; Smith et al., 1997). […] Three to eight hours prior to recording, oocytes were injected with 500 pg Gαq/z mRNA in order to observe coupling to Ca^++ activated Cl^− currents. Dual electrode voltage clamp (Axon Instruments Inc.) was performed using 3 M KCl-filled glass microelectrodes having resistances of 1-2 Mohm. Unless otherwise specified, oocytes were voltage clamped at a holding potential of −80 mV. During recordings, oocytes were bathed in continuously flowing (1-3 ml/min) medium containing 96 mM NaCl, 2 mM KCl, 1.8 mM CaCl2, 1 mM MgCl2, and 5 mM HEPES, pH 7.5 (ND96). Drugs were applied either by local perfusion from a […] glass capillary tube fixed at a distance of 0.5 mm from the oocyte, or by switching from a series of gravity fed perfusion lines.
Heterologous expression of GPCRs in Xenopus oocytes has been widely used to determine the identity of signaling pathways activated by agonist stimulation (Gundersen et al., 1983; Takahashi et al., 1987). Activation of the phospholipase C (PLC) pathway is assayed by applying test compound in ND96 solution to oocytes previously injected with mRNA for the mammalian receptor and observing inward currents at a holding potential of −80 mV. The appearance of currents that reverse at −25 mV and display other properties of the Ca^++-activated Cl^− (chloride) channel is indicative of mammalian receptor-activation of PLC and release of IP3 and intracellular Ca^++.

[1] = target: rat spinal cord membrane receptor; test: [125I]D-Tyr-NPFF radioligand binding, rat spinal cord membranes; details: competition of [125I]D-Tyr-NPFF binding; * = differs from NPFF1
Text: The binding profile of rat NPFF1 was compared to that of rat spinal cord membranes. […] (See * Table 2).

rat NPFF1 receptor = rat NPFF1 receptor (Rattus norvegicus, UniProt Q9EP86); test: [125I]D-Tyr-NPFF radioligand binding, membranes of COS-7 cells transiently expressing cloned rat NPFF1; parameters: expressed in transfected cells; host or cells: COS-7 (transient)
rat NPFF1 receptor, sequence (Q9EP86 whole entry): as above
Procedure: Transfected cells from culture flasks are scraped into 5 ml of 20 mM Tris-HCl, 5 mM EDTA, pH 7.5, and lysed by sonication. The cell lysates are centrifuged at 1000 rpm for 5 min. at 4° C., and the supernatant is centrifuged at 30,000×g for 20 min. at 4° C. […] Optimal membrane suspension dilutions, defined as the protein concentration required to bind less than 10% of the added radioligand, […], unlabeled compounds, and binding buffer to a final volume of 250 μl. In equilibrium saturation binding assays membrane preparations are incubated in the presence of increasing concentrations of [^3H]-labeled compound. […] Competition assay: 50 pM radioligand, 10-12 points. Binding reaction mixtures are incubated for 2 hr at 25° C., and the reaction stopped by filtration through a double layer of GF filters treated with 0.1% polyethyleneimine, using a cell harvester. Wash buffer: 50 mM Tris-HCl, 0.1% BSA. Radioactivity may be measured by scintillation counting and data are analyzed by a computerized non-linear regression program. Non-specific binding is defined as the amount of radioactivity remaining after incubation of membrane protein in the presence of 1 μM final concentration […]. Protein concentration may be measured by the Bradford method using Bio-Rad Reagent, with bovine serum albumin as a standard.
Cos-7 cells transiently expressing the gene encoding the novel rat NPFF1 receptor were used for pharmacological evaluation.

[2] = competition of [125I]D-Tyr-NPFF binding, COS-7 membranes
[3] = competition of [125I]D-Tyr-NPFF binding, COS-7 membranes, read-out: pKi for cloned rat NPFF1 receptor binding in COS-7 cells, MEAN (converted)

| Molecule | pKi for rat spinal cord membrane receptor binding, MEAN [1] | Ki (rat NPFF1 receptor; [3]) | other results |
| --- | --- | --- | --- |
| NCCc1c[nH]c2ccc(O)cc12 [5-HT] |  |  | activation of oocytes injected with SNORF2 synthetic RNA (NPFF1 (SNORF2)): failed to activate |
| CC(C)C[C@@H](NC(=O)[C@H](N)Cc1ccc(O)cc1)C(=O)N[C@@H](Cc1ccccc1)C(=O)N[C@@H](CCC(N)=O)C(=O)N1CCC[C@H]1C(=O)N[C@@H](CCC(N)=O)C(=O)N[C@@H](CCCNC(=N)N)C(=O)N[C@@H](Cc1ccccc1)C(N)=O [(2D)Y8Fa] (H-[dY][dL]FQPQRF-NH2; N-terminus assumed) | *9.212 |  | pKi for cloned rat NPFF1 receptor binding in COS-7 cells, MEAN (rat NPFF1 receptor; [2]): 8.33 |
| CC(C)C[C@@H](NC(=O)[C@H](N)Cc1ccc(O)cc1)C(=O)N(C)[C@@H](Cc1ccccc1)C(=O)N[C@@H](CCC(N)=O)C(=O)N1CCC[C@H]1C(=O)N[C@@H](CCC(N)=O)C(=O)N[C@@H](CCCNC(=N)N)C(=O)N[C@@H](Cc1ccccc1)C(N)=O [(2DME)Y8Fa] (H-[dY][dL][NMeF]QPQRF-NH2; N-terminus assumed) | 9.57 |  | pKi for cloned rat NPFF1 receptor binding in COS-7 cells, MEAN (rat NPFF1 receptor; [2]): 9.2 |
| CC(C)C[C@@H](NC(=O)[C@H](N)Cc1ccc(O)cc1)C(=O)N[C@H](Cc1ccccc1)C(=O)N[C@@H](CCC(N)=O)C(=O)N1CCC[C@H]1C(=O)N[C@@H](CCC(N)=O)C(=O)N[C@@H](CCCNC(=N)N)C(=O)N[C@@H](Cc1ccccc1)C(N)=O [(3D)Y8Fa] (H-[dY][dL][dF]QPQRF-NH2; N-terminus assumed) | 9.123 |  |  |
| CSCC[C@H](NC(=O)[C@H](Cc1ccc(OS(=O)(=O)O)cc1)NC(=O)[C@@H](N)CC(=O)O)C(=O)NCC(=O)N[C@@H](Cc1c[nH]c2ccccc12)C(=O)N[C@@H](CCSC)C(=O)N[C@@H](CC(=O)O)C(=O)N[C@@H](Cc1ccccc1)C(N)=O [CCK8] |  |  | pKi for cloned rat NPFF1 receptor binding in COS-7 cells, MEAN (rat NPFF1 receptor; [2]): ≤ 5 |
| N=C(N)NCCC[C@@H](N)C(=O)O [D-arginine] |  | ≥ 10 µM |  |
| N=C(N)NCCC[C@H](NC(=O)[C@H](Cc1ccccc1)NC(=O)[C@@H](N)Cc1ccccc1)C(=O)N[C@@H](Cc1ccccc1)C(N)=O [FFRF] (H-FFRF-NH2; N-terminus and C-terminus assumed) | 8.98 |  | pKi for cloned rat NPFF1 receptor binding in COS-7 cells, MEAN (rat NPFF1 receptor; [2]): 8 |
| C[C@@H](O)[C@H](NC(=O)[C@@H](N)Cc1ccccc1)C(=O)N[C@@H](CCCNC(=N)N)C(=O)N[C@@H](Cc1ccccc1)C(N)=O [FTRF] (H-FTRF-NH2; N-terminus and C-terminus assumed) | 8.16 |  | pKi for cloned rat NPFF1 receptor binding in COS-7 cells, MEAN (rat NPFF1 receptor; [2]): 7.87 |
| N=C(N)NCCC[C@H](N)C(=O)O [L-arginine] |  | ≥ 10 µM |  |
| CSCC[C@H](NC(=O)[C@@H]1CCCN1)C(=O)N[C@@H](CCCNC(=N)N)C(=O)N[C@@H](Cc1ccccc1)C(N)=O [PMRFa] (H-PMRF-NH2; N-terminus assumed) | 9.37 |  |  |
| CC(C)C[C@H](NC(=O)[C@H](Cc1ccccc1)NC(=O)Cc1ccc(O)cc1)C(=O)N[C@@H](Cc1ccccc1)C(=O)N[C@@H](CCC(N)=O)C(=O)N1CCC[C@H]1C(=O)N[C@@H](CCC(N)=O)C(=O)N[C@@H](CCCNC(=N)N)C(N)=O [desamino-nor-Y8Ra] (X1-FLFQPQR-NH2) | 7.51 |  | pKi for cloned rat NPFF1 receptor binding in COS-7 cells, MEAN (rat NPFF1 receptor; [2]): 7.27 |
| CNCCCN1c2ccccc2CCc2ccccc21 [desipramine] |  | ≥ 10 µM |  |
| NCCc1ccc(O)c(O)c1 [dopamine] |  | ≥ 10 µM |  |
| CCNC(C)Cc1cccc(C(F)(F)F)c1 (stereo not drawn) [fenfluramine] |  | ≥ 10 µM |  |
| COc1ccc2c(c1)[nH]c1c(C)nccc12 [harmine] |  |  | Ki (rat NPFF1 receptor): ≥ 10 µM |
| C[C@@H]1CN([C@H]2CC[C@](C#N)(c3ccc(F)cc3)CC2)CC[C@]1(C(=O)O)c1ccccc1 [levocabastine] |  | ≥ 10 µM |  |
| CC(C)C[C@H](NC(=O)[C@H](CCCCN)NC(=O)[C@H](CCCN=C(N)N)NC(=O)[C@H](C)NC(=O)[C@H](CO)NC(=O)[C@H](CCCCN)NC(=O)[C@H](CCCN=C(N)N)NC(=O)[C@H](C)NC(=O)CNC(=O)[C@@H](NC(=O)[C@H](Cc1ccccc1)NC(=O)CNC(=O)CNC(=O)[C@@H](N)Cc1ccccc1)[C@@H](C)O)C(=O)N[C@@H](C)C(=O)N[C@@H](CC(N)=O)C(=O)N[C@@H](CCC(N)=O)C(=O)O [nociceptin] |  |  | Ki (rat NPFF1 receptor): ≥ 10 µM |
| Cc1nc2sccn2c(=O)c1CCN1CCC(=C(c2ccc(F)cc2)c2ccc(F)cc2)CC1 [ritanserine] |  | ≥ 10 µM |  |
| AGEGLSSPYWSLAAPQRF-NH2 [[Y^9]A18Fa] | *8.502 |  | inward current response (NPFF1 (SNORF2)): displayed activity |
| Dynorphin A1-13 | *5.700 |  |  |
| H-KHQYLRF-NH2 [AF-2, H-Lys-His-Gln-Tyr-Leu-Arg-Phe-NH2] | *7.965 | 0.0948 µM |  |
| H-KNQFIRF-NH2 [AF-1, H2N-Lys-Asn-Gln-Phe-Ile-Arg-Phe-NH2] | *7.563 | 0.232 µM |  |
| H-PDVDHVFLRF-NH2 [SchistFLRF] | 6.39 |  |  |
| PDKDFIVNPSDLVLDNKAALRDYLRQINEYFAIIGRPRF-NH2 (C-terminus assumed) [Neuropeptide F] | *8.100 |  | pKi for cloned rat NPFF1 receptor binding in COS-7 cells, MEAN (rat NPFF1 receptor; [2]): 6.11 |
| TEPGLEEVGEIEQKQLQ [nocistatin] |  |  | pKi for cloned rat NPFF1 receptor binding in COS-7 cells, MEAN (rat NPFF1 receptor; [2]): ≤ 5 |
| YLFQPQRF-NH2 [Y8Fa] | *9.189 |  | inward current response (NPFF1 (SNORF2)): displayed activity |
| melanin concentrating hormone |  |  | activation of oocytes injected with SNORF2 synthetic RNA (NPFF1 (SNORF2)): failed to activate |
| orexin B |  |  | activation of oocytes injected with SNORF2 synthetic RNA (NPFF1 (SNORF2)): failed to activate |
| CCK: unrelated neuropeptide (peptide, UniProt P06307 21-115, looked up, Cholecystokinin, unrelated neuropeptide) Cholecystokinin: QPVPPADPAGSGLQRAEEAPRRQLRVSQRTDGESRAHLGALLARYIQQARKAPSGRMSIVKNLQNLDPSHRISDRDYMGWMDFGRRSAEEYEYPS |  |  | activation of oocytes injected with SNORF2 synthetic RNA (NPFF1 (SNORF2)): failed to activate |
